Measurements taken from patent US20210244686A1, “Novel Systems And Methods For The Therapeutic Use of Cannabinoids or Cannabinoid Analogs to Increase The Lipid Order of Cholesterol Containing Cell Membranes” (The Regents of the University of Colorado a body corporate, priority 2018, published 2021).

Assays:
Format in all cases: cell-based, human
[1] = system: endoplasmic reticulum in SKNBE2 and HaCaT keratinocyte cells; assay: Confocal microscopy of rhodamine-glibenclamide staining, ER structure
Method: FIG. 16. Rhodamine-glibenclamide staining in live cells is visualized by confocal microscopy in live cells. ER structure is perturbed after 2 hours of exposure to CBD and o-1602, but not for o-1821 exposure.

[2] = system: SK-N-BE(2) cells; assay: Lipidomics of total lipid abundance
Text: To investigate the effect of CBD on cholesterol storage, the present inventors performed follow up experiments to determine the total cellular amounts of small molecule markers of cholesterol storage as a function of CBD exposure. The inventors detected accumulation of multiple species of cholesteryl esters with diverse chain length and degree of unsaturation in the acyl chain (FIG. 4A).
Since this esterification requires acyl CoA reactants, the inventors surveyed our dataset for evidence of fatty acid utilization.
Thus, the present inventors found multiple lines of evidence consistent with activation of cholesterol esterification in the CBD response. To further support the claim that CBD elicits cholesterol storage, the present inventors used live cell confocal microscopy of SK-N-BE(2) cells stained with both fluorescent cholesterol (22-NBD-Cholesterol) and the lipid droplet dye nile red (FIG. 4E) to quantify the number and size of lipid droplets. […] Altogether, these combined experiments highlight that the CBD response in cells includes activation of cholesterol esterification and storage.
Extraction of cholesterol, precursors, free fatty acids, cholesteryl esters, and phospho lipids were performed in the following manner. SK-N-BE(2) cells in 10 cm dishes were washed with 10 mL PBS twice and then cells were scraped and pelleted at 400 rcf for 2 minutes. Cell pellets were resuspended in 100% methanol at 4° C. and sonicate at 70% power in 10 pulses, 5 seconds on/5 seconds off. The resulting lysate was rotated for 60 minutes at room temperature, followed by centrifugation for 20 min at 4° C. (16,100 rcf). Subcellular fractionation of organelles from intact SK-N-BE(2) cells was done in the following manner to assess subcellular CBD distribution. Cells in 10 cm culture dishes were harvest by washing twice with 10 mL PBS at room temperature, followed by trypsinization using a cell culture grade Trypsin/EDTA solution (ThermoFisher). Trypsinized cells were quenched by addition of 2 mL 10% FBS containing DMEM and cells were pelleted by centrifugation for 2 min at 4° C. (200 rcf). Cell pellets were wash one time with 10 mL PBS, and resuspended in 1 mL Tween20 Buffer (1×PBS, 0.05% Tween20, 5 mM EDTA). This lysate was subjected to mechanical disruption using a 1 mL glass Dounce homogenizer, 10 full passes at 4° C. Nuclei was pelleted from homogenate by centrifugation for 5 min at 4° C. (2,000 rcf). Supernatant was separated and insoluble ER membranes were pelleted by centrifugation for 10 min at 4° C. (4,000 rcf). Supernatant was separated and insoluble plasma membranes were pelleted by centrifugation for 10 min at 4° C. (16,000 rcf). […]

[3] = system: SK-N-BE(2) cells; assay: Subcellular fractionation and LC-MS of CBD distribution; details: 24 hrs
Method: In a metabolomics survey of SK-N-BE(2) cells exposed to CBD, the present inventors were able to determine that CBD is concentrated in insoluble components […]. As a result, the inventors designed and executed a subcellular fractionation method to isolate nuclear membrane, plasma membrane, and ER membrane fractions.
Extraction of cholesterol, precursors, free fatty acids, cholesteryl esters, and phospho lipids were performed in the following manner. SK-N-BE(2) cells in 10 cm dishes were washed with 10 mL PBS twice and then cells were scraped and pelleted at 400 rcf for 2 minutes. […]
Analytes were resolved over an ACQUITY HSS T3 column (2.1×150 mm, 1.8 μm particle size (Waters, Mass., USA) using an aqueous phase (A) of 25% acetonitrile and 5 mM ammonium acetate and a mobile phase (B) of 90% isopropanol, 10% acetonitrile and 5 mM ammonium acetate. The column was equilibrated at 30% B, and upon injection of […] of extract, samples were eluted from the column using the solvent gradient: 0-9 min 30-100% B and 0.325 mL/min; hold at 100% B for 3 min at 0.3 mL/min, and then decrease to 30% over 0.5 min at 0.4 ml/min, followed by a re-equilibration hold at 30% B for 2.5 minutes at 0.4 ml/min. […] Samples were analyzed in randomized order with a technical mixture injected incrementally to qualify instrument performance. […]

For `C=C(C)[C@@H]1CCC(C)=C[C@H]1c1c(O)cc(CCCCC)cc1O` [CBD, cannabidiol], the “alteration of the structure of the endoplasmic reticulum” value ([1]; SKNBE2 and HaCaT keratinocyte cells) was “dramatically alters the structure of the endoplasmic reticulum”, the ER structure ([1]; after 2 hours of exposure, live cells) was “perturbed” and the cholesteryl esters ([2]; CBD 20 μM vs vehicle) was “accumulation”. For the same compound, the “free fatty acid levels” value ([2]; CBD 20 μM vs vehicle) was “reduced”, the free phospholipid head-groups ([2]; CBD 20 μM vs vehicle) was “accumulation” and the “phosphatidylcholine and phosphatidylethanolamine species abundance” value ([2]; CBD treated vs vehicle treated cells) was “reduced abundance”. The “CBD incorporated into ER and nuclear membranes” value [3] was “detectable amount”.
